Data set [1] can be described thus: Fluorescence lifetime measurements. In kind it is physicochemical. The note with it: free and peptide incorporated forms.
A short description of data set [2]: Absorption and fluorescence. In kind it is physicochemical.
Data set [3] in a line: Collisional quenching experiments on NAAzAP with free amino acids and imidazole. In kind it is physicochemical.
Data set [4] can be described thus: Fluorescence spectra of NAAzAP in different solvents. In kind it is physicochemical. Particulars: upon lowering solvent polarity, λex 342 nm.
The conditions of data set [5]: typical range; depends on solvent exposure and quenching; cited from earlier work.
A further data set has as its system CaM. Particulars: cited from earlier work.

Take `N[C@@H](Cc1ccc2cccccc1-2)C(=O)O` [AzAla, β-(1-Azulenyl)-L-Alanine]: the fluorescence decay entry in data set [1] is “simple monoexponential fluorescence decay”. The extinction coefficient in data set [2] (S2-S0 transition) is ~ 4200 cm^−1M^−1. In addition, the quantum yield entry in data set [2] (relative to tryptophan) was “comparable to those of tryptophan”. Further, in data set [2] (relative to tryptophan, narrower profile of the azulene emission), the apparent emission intensity entry is “nearly the same apparent emission intensity”.
As to `CCCNC(=O)C(Cc1ccc2cccccc1-2)NC(C)=O` (centres unmarked) [NAAzAP, N-Acetyl-(AzulylAlanine)-propylamide], the fluorescence quenching result in data set [3] (quencher: free methionine) is listed as “quenched”; in data set [3] (quencher: imidazole) it was “quenched”; in data set [3] (quencher: tryptophan, same conditions), “not by tyrosine or tryptophan”; in data set [3] (quencher: tyrosine, same conditions) it was “not by tyrosine or tryptophan”. For the same compound, the “red shift of fluorescence spectra” value in data set [4] is 6 nm.
Consider `N[C@@H](Cc1c[nH]c2ccccc12)C(=O)O` [Tryptophan], for which the “apparent Trp quantum yield (Φ)” value in data set [5] is reported as 0.35 to 0.01.
For the compound “Melittin: Melittin has strong affinity for CaM”, in the data set with CaM, the “affinity for CaM” value was “strong affinity for CaM”.

The record behind these values is publication PMC3547328 (Chemical communications (Cambridge, England), 2013).
